Results reported in US7544497B2, “Compositions for manipulating the lifespan and stress response of cells and organisms” (President and Fellows of Harvard College, priority 2003, dated 2009).

Columns and labels:
[1] = target: T1, recombinant SIR-2.1 (Caenorhabditis elegans, UniProt Q21921); experiment: SIR-2.1 deacetylation assay (Fluor de Lys)
T1 sequence (Q21921 1-607): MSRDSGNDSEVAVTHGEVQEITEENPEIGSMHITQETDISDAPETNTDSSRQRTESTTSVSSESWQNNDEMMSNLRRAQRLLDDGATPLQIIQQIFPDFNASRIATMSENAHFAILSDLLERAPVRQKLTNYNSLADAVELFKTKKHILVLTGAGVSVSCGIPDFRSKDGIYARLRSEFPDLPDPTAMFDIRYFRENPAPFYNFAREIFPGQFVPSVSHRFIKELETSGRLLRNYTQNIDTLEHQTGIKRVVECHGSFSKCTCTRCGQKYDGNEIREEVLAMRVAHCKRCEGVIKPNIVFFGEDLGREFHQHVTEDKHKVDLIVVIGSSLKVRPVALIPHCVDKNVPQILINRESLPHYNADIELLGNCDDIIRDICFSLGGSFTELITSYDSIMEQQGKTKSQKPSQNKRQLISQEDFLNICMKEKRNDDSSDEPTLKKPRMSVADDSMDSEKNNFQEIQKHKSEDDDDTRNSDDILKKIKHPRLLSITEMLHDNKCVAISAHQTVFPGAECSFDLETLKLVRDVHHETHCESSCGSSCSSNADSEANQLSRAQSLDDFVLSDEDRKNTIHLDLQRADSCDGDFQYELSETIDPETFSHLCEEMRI

[2] = target: T2, recombinant human SIRT1 (Homo sapiens, UniProt Q96EB6); experiment: SIRT1 fluorescent deacetylation assay (p53-382 acetylated peptide substrate); type: biochemical; conditions: 100 μM resveratrol
T2 sequence (Q96EB6 1-747): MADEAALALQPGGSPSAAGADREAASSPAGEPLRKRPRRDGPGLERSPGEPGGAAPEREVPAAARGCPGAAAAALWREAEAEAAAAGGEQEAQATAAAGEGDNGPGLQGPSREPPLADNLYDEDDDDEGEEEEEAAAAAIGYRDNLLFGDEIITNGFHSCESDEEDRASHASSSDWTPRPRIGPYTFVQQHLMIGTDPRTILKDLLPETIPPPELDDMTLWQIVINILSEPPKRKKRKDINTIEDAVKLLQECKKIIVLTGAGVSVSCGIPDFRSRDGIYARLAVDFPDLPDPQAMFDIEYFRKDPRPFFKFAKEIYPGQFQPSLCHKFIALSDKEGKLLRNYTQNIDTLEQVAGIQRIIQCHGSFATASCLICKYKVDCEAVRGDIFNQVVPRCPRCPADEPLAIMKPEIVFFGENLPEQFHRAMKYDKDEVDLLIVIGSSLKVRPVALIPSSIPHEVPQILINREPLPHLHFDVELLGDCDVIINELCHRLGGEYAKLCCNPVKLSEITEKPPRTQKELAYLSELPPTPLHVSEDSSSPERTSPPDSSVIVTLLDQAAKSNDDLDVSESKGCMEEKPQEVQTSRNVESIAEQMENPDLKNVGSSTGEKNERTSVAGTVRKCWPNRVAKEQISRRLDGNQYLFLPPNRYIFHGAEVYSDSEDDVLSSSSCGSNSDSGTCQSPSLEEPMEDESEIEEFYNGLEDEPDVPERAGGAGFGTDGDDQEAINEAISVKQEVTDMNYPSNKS
Text: To identify compounds that modulate SIRT1 activity, we screened a number of small molecule libraries using a fluorescent deacetylation assay in 96-well plates^26. The substrate used in the assay was a fluorogenic peptide based on the sequence encompassing the p53-K382 acetylation site, a known target of SIRT1 in vivo^20,21,27. This substrate was preferred over a variety of other fluorogenic peptide substrates that were based on other known HDAC targets (FIG. 5). The small molecule libraries included analogues of nicotinamide, ε-acetyl lysine, NAD^+, nucleotides, nucleotide analogues and purinergic ligands. From the initial screen, several sirtuin inhibitors were found (Supplementary Table 7). However, the most striking outcome was the identification of two compounds, quercetin and piceatannol, that stimulated SIRT1 activity five and eight-fold, respectively (Table 1). Both quercetin and piceatannol have been previously identified as protein kinase inhibitors^28,29.
His6-tagged recombinant SIRT1 and GST-tagged recombinant Sir2 were prepared as previously described^26. From 0.1 to 1 μg of SIRT1 and 1.5 μg of Sir2 were used per deacetylation assay (in 50 μl total reaction) as previously described^26. SIRT1 assays and certain of those for Sir2 employed the p53-382 acetylated substrate (‘Fluor de Lys-SIRT1’, BIOMOL) rather than FdL.
Themed compound libraries (BIOMOL) were used for primary and secondary screening. […] For water soluble compounds and negative controls, 1% v/v DMSO was added to the assay. […] HeLa cells were grown and the cellular deacetylation assays were performed and read, as above, but in full-volume 96-well microplates (Corning Costar 3595). Unless otherwise indicated all initial rate measurements were means of three or more replicates, obtained with single incubation times, at which point 5% or less of the substrate initially present had been deacetylated. Calculation of net fluorescence increases included subtraction of a blank value, which in the case of Sir2 was obtained by omitting the enzyme from the reaction and in the case of SIRT1 by adding an inhibitor (200 μM suramin or 1 mM nicotinamide) to the reaction prior to the acetylated substrate. […] All error bars represent the standard error of the mean.
All SIRT1 rate measurements used in the calculation of “Ratio to Control Rate” were obtained with 25 μM NAD^+ and 25 μM p53-382 acetylated peptide substrate were performed as described above and in K. T. Howitz et al. Nature (2003) 425: 191. All ratio data were calculated from experiments in which the total deacetylation in the control reaction was 0.25-1.25 μM peptide or 1-5% of the initial concentration of acetylated peptide.

[3] = system: C. elegans; experiment: C. elegans lifespan assay; type: in vivo
Description: Thus, the presence of resveratrol in the growth media of C. elegans extends their lifespan.
Bristol N2 (Caenorhabditis Genetics Center) was used as the wild-type strain. The sir-2.1 mutant strain was generated by backcrossing VC199 (sir-2.1 (ok434)) to N2 four times. Cultures were grown on standard NGM media and maintained on E. coli strain OP50. For the lifespan assays, synchronized animals were transferred to treatment plates as young adults (2 d after hatching, day 0 of assay), and were transferred to fresh treatment plates every 2 days for the first 6 to 8 days of the assay. […] For some lifespan trials, heat-killed OP50 were used as a food source. OP50 cultures were heated to 65° C. for 30 minutes, then pelleted and resuspended in 1/10 volume in S Basal supplemented with 10 mM MgSO4. In all assays, worms were monitored daily for mortality by gently probing with a platinum pick. Assays were performed at 24° C.

Question: For `Oc1ccc(/C=C/c2cc(O)cc(O)c2)cc1` [Resveratrol, 3,5,4′-Trihydroxy-trans-stilbene], which “effect on Km of SIR-2.1 for NAD+” value ([1]; 100 μM resveratrol, 10 μM Fluor de Lys) is on record?
Answer: lowered

Question: And the “stimulation of deacetylation, SIR-2.1 (up to)” value ([1]; dose-dependent, 200 μM NAD+, 10 μM FdL)?
Answer: up to 2.5 fold

Question: And the “Vmax (+resveratrol), NAD+ varied” value ([2]; 1 mM p53-382 acetylated peptide, control 1863)?
Answer: 1749 AFU/min.

Question: What about the “Vmax (+resveratrol), p53-382 acetylated peptide varied” value ([2]; 3 mM NAD+, control 1107) of the same molecule?
Answer: 926 AFU/min.

Question: What about the lifespan extension ([3]; sir-2.1 mutants, 100 μM, heat-killed OP50, not statistically significant) of the same molecule?
Answer: 5.2%

Question: What about the lifespan extension ([3]; sir-2.1 mutants, 100 μM, live OP50, P=0.81) of the same molecule?
Answer: 3.3%

Question: And the lifespan extension ([3]; wild-type N2, 100 μM, live OP50)?
Answer: 12.6%

Question: And the “lifespan extension (up to)” value ([3]; wild-type worms, 100 μM, heat-killed or live E. coli)?
Answer: up to 15%
